Article PMC6428052 (Journal of medicinal chemistry, 2018)

What was measured:
hP2Y14R = molecular target: T1, hP2Y14R (Homo sapiens, UniProt Q15391); type: binding; conditions: for fold less potent than 7 in P2Y14R binding: primary amino sulfonamides with two and four methylenes vs three
T1 sequence (Q15391 1-338): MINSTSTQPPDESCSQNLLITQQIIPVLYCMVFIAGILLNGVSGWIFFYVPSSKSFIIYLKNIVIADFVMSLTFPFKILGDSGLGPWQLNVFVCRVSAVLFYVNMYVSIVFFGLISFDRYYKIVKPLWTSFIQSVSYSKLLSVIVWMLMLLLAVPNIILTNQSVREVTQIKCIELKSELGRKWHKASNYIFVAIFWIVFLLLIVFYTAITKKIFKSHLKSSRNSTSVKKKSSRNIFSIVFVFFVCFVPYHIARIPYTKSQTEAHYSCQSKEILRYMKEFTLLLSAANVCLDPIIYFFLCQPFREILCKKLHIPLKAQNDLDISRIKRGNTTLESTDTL

5HT2B = 5HT2B (Homo sapiens, UniProt P41595); test: PDSP off-target binding; conditions: read-out: Ki, 5HT2B
H3 = H3 (Homo sapiens, UniProt Q9Y5N1); test: PDSP off-target binding; conditions: read-out: Ki, H3
[1] = system: 45 receptors, transporters and ion channels; test: PDSP comprehensive off-target screen; type: binding
[2] = Stability in simulated gastric and intestinal fluids; conditions: after 240 min
CACO-2 cell = CACO-2 cell permeability; conditions: CACO-2 cells
Plasma stability = conditions: at 120 min; plasma of three species: human, rat and mouse
[3] = In vivo pharmacokinetics in rat; conditions: male Sprague Dawley rat, oral administration 1–10 mg/kg
[4] = carboxylate replaced by tetrazole

5HT2B, sequence (P41595 whole entry, species assumed): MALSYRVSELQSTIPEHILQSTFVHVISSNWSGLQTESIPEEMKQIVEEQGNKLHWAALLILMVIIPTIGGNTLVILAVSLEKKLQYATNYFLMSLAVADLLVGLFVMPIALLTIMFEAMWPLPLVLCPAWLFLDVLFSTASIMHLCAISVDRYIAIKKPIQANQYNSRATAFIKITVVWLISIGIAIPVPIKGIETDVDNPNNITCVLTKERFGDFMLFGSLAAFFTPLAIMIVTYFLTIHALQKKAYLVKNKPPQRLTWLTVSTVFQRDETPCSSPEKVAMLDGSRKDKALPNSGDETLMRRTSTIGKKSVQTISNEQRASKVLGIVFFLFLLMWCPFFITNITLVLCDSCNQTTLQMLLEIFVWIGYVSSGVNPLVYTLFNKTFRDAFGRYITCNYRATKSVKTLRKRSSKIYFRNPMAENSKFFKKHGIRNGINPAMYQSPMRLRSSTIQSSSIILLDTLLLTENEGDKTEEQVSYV
H3, sequence (Q9Y5N1 whole entry): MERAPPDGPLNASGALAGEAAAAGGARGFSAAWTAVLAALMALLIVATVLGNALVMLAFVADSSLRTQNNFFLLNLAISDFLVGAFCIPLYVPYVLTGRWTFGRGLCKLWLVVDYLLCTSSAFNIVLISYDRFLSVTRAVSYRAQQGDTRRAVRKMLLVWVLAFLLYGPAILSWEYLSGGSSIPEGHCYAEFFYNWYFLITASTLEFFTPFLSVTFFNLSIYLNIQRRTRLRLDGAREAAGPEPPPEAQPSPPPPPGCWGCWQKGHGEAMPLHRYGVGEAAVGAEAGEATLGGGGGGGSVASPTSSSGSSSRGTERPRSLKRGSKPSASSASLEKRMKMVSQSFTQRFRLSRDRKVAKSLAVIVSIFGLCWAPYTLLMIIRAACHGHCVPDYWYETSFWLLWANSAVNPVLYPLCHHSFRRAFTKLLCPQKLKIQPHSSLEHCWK

Question: With `NCCCNC(=O)c1ccc(-c2cc(-c3nnn[nH]3)cc(-n3cc(-c4ccc(C(F)(F)F)cc4)nn3)c2)s1` [compound 36a, 5-(3-(1#-Tetrazol-5-yl)-5-(4-(4-(trifluoromethyl)phenyl)-1H-1,2,3-triazol-1-yl)phenyl)-N-(3-aminopropyl)thiophene-2-carboxamide] as the molecule, how does the “fold reduction of affinity relative to 20” value (hP2Y14R) read?
Answer: 7 fold

Question: For `NC(=O)c1ccc(-c2cc(-c3nnn[nH]3)cc(-n3cc(-c4ccc(C(F)(F)F)cc4)nn3)c2)cc1` [compound 36b, 3'-(1H-Tetrazol-5-yl)-5'-(4-(4-(trifluoromethyl)phenyl)-1H-1,2,3-triazol-1-yl)-[1,1'-biphenyl]-4-carboxamide], which “fold less potent than carboxamide 30” value (hP2Y14R) is on record?
Answer: 9 fold

Question: With `CC(C)(C)OC(=O)N1CCN(Cc2ccc(-c3cc(C(=O)O)cc(-n4cc(-c5ccc(C(F)(F)F)cc5)nn4)c3)s2)CC1` [compound 17, 3-(5-((4-(tert-Butoxycarbonyl)piperazin-1-yl)methyl)thiophen-2-yl)-5-(4-(4-(trifluoromethyl)phenyl)-1H-1,2,3-triazol-1-yl)benzoic acid] as the molecule, how does the “fold weaker than methylpiperazine 18” value (hP2Y14R; Boc derivative vs free amine) read?
Answer: 34 fold

Question: For `O=C(O)c1cc(-c2ccc(C(=O)N3CCNCC3)s2)cc(-n2cc(-c3ccc(C(F)(F)F)cc3)nn2)c1` [compound 22, 3-(5-(Piperazine-1-carbonyl)thiophen-2-yl)-5-(4-(4-(trifluoromethyl)phenyl)-1H-1,2,3-triazol-1-yl)benzoic acid], which “fold less potent than thienyl sulfonamide 12” value (hP2Y14R; cyclic amines) is on record?
Answer: 2 fold

Question: For `O=C(O)c1cc(-c2ccc(S(=O)(=O)NCCCCO)s2)cc(-n2cc(-c3ccc(C(F)(F)F)cc3)nn2)c1` [compound 10, 3-(5-(N-(4-Hydroxybutyl)sulfamoyl)thiophen-2-yl)-5-(4-(4-(trifluoromethyl)phenyl)-1H-1,2,3-triazol-1-yl)benzoic acid], which “fold less potent than primary aminobutyl congener 9” value (hP2Y14R) is on record?
Answer: 4 fold

Question: With `FC(F)(F)c1ccc(-c2cn(-c3cc(-c4ccc(C5CCNCC5)cc4)cc(-c4nnn[nH]4)c3)nn2)cc1` [compound 35, 4-(3'-(1H-Tetrazol-5-yl)-5'-(4-(4-(trifluoromethyl)phenyl)-1H-1,2,3-triazol-1-yl)-[1,1'-biphenyl]-4-yl)piperidine] as the molecule, how does the “fold reduction of affinity relative to 2a” value (hP2Y14R; [4]) read?
Answer: 30 fold

Question: With `O=C(O)c1cc(O)cc(-n2cc(-c3ccc(C(F)(F)F)cc3)nn2)c1` [compound 37a] as the molecule, how does the “fold less potent than carboxamide 30” value (hP2Y14R) read?
Answer: 60 fold

Question: With `CC(C)(C)OC(=O)NCCCCCCn1cc(CCCCN2CCC(c3ccc(-c4cc(C(=O)O)cc5cc(-c6ccc(C(F)(F)F)cc6)ccc45)cc3)CC2)nn1` [compound 3c, 4-(4-(1-(4-(1-(6-((tert-Butoxycarbonyl)amino)hexyl)-1H-1,2,3-triazol-4-yl)butyl)piperidm-4-yl)phenyl)-7-(4-(trifluoromethyl)phenyl)-2-naphthoic acid] as the molecule, how does the Ki (5HT2B) read?
Answer: 2780 nM

Question: What about the Ki (H3) of the same molecule?
Answer: 2770 nM

Question: Which “Off-target interactions in the comprehensive PDSP screen” value (shortened to “Off-target interactions”) [1] does the source give for `CCN(CC)CC.NC(=O)c1ccc(-c2cc(C(=O)O)cc(-n3cc(-c4ccc(C(F)(F)F)cc4)nn3)c2)cc1` [compound 30, 4'-Carbamoyl-5-(4-(4-(trifluoromethyl)phenyl)-lH-l,2,3-triazol-l-yl)-[l,l'-biphenyl]-3-carboxylic acid] here?
Answer: did not bind appreciably to any other sites

Question: And the “remaining in simulated gastric fluid” value [2]?
Answer: 100 % remaining

Question: What about the “remaining in simulated intestinal fluid” value [2] of the same molecule?
Answer: 100 % remaining

Question: What about the “Papp, apical to basal” value (CACO-2 cell) of the same molecule?
Answer: 0.0 X 10^−6 cm/sec

Question: And the remaining in plasma (Plasma stability)?
Answer: 94 – 100 % remaining

Question: And the oral bioavailability [3]?
Answer: lack of bioavailability

Question: For `NCCCNC(=O)c1ccc(-c2cc(C(=O)O)cc(-n3cc(-c4ccc(C(F)(F)F)cc4)nn3)c2)s1` [compound 20, 3-(5-((3-Aminopropyl)carbamoyl)thiophen-2-yl)-5-(4-(4-(trifluoromethyl)phenyl)-1H-1,2,3-triazol-1-yl)benzoic acid], which “Off-target interactions” value [1] is on record?
Answer: did not display extensive off-target interactions with biogenic amine receptors

Question: With `CCN(CC)CC.NS(=O)(=O)c1ccc(-c2cc(C(=O)O)cc(-n3cc(-c4ccc(C(F)(F)F)cc4)nn3)c2)cc1` [compound 16, 4'-Sulfamoyl-5-(4-(4-(trifluoromethyl)phenyl)-1H-1,2,3-triazol-1-yl)-[1,1'-biphenyl]-3-carboxylic acid] as the molecule, how does the “fold more potent than thienyl sulfonamide 13” value (hP2Y14R) read?
Answer: 10 fold

Question: With `O=C(O)c1cc(O)c2ccc(-c3ccc(C(F)(F)F)cc3)cc2c1` [37d] as the molecule, how does the “Off-target interactions” value [1] read?
Answer: bound only to NET

Question: With `NCCCCCCn1cc(CCCCN2CCC(c3ccc(-c4cc(C(=O)O)cc5cc(-c6ccc(C(F)(F)F)cc6)ccc45)cc3)CC2)nn1` [compound 3d, 4-(4-(1-(4-(1-(6-Ammohexyl)-1H-1,2,3-triazol-4-yl)butyl)piperidm-4-yl)phenyl)-7-(4-(trifluoromethyl)phenyl)-2-naphthoic acid] as the molecule, how does the “Off-target interactions” value [1] read?
Answer: displayed extensive off-target interactions with biogenic amine receptors

Question: For `CC(C)(C)NC(=O)c1ccc(-c2cc(-c3nnn[nH]3)cc(-n3cc(-c4ccc(C(F)(F)F)cc4)nn3)c2)cc1` [compound 36c, N-(terf-Butyl)-3'-(1H-tetrazol-5-yl)-5'-(4-(4-(trifluoromethyl)phenyl)-1H-1,2,3-triazol-1-yl)-[1,1'-biphenyl]-4-carboxamide], which “fold reduction of affinity relative to 34” value (hP2Y14R; [4]) is on record?
Answer: 3 fold

Question: For `NCCCNS(=O)(=O)c1ccc(-c2cc(C(=O)O)cc(-n3cc(-c4ccc(C(F)(F)F)cc4)nn3)c2)s1` [compound 7, 3-(5-(N-(3-Ammopropyl)sulfamoyl)thiophen-2-yl)-5-(4-(4-(trifluoromethyl)phenyl)-1H-1,2,3-triazol-1-yl)benzoic acid], which “fold more potent than its Boc derivative 6” value (hP2Y14R) is on record?
Answer: 12 fold

Question: Which “fold less potent than carboxamide 30” value (hP2Y14R) does the source give for `CCN(CC)CC.NC(=O)c1ccc(-c2cc(C(=O)O)cc(-n3cc(-c4ccc(C(F)(F)F)cc4)nn3)c2)o1` [compound 24, 3-(5-Carbamoylfuran-2-yl)-5-(4-(4-(trifluoromethyl)phenyl)-1H-1,2,3-triazol-1-yl)benzoic acid] here?
Answer: 10 fold

Question: Which “fold less potent than 7 in P2Y14R binding” value (hP2Y14R) does the source give for `NCCCCNS(=O)(=O)c1ccc(-c2cc(C(=O)O)cc(-n3cc(-c4ccc(C(F)(F)F)cc4)nn3)c2)s1` [compound 9, 3-(5-(N-(4-Ammobutyl)sulfamoyl)thiophen-2-yl)-5-(4-(4-(trifluoromethyl)phenyl)-1H-1,2,3-triazol-1-yl)benzoic acid] here?
Answer: 3 fold

Question: With `NCCNS(=O)(=O)c1ccc(-c2cc(C(=O)O)cc(-n3cc(-c4ccc(C(F)(F)F)cc4)nn3)c2)s1` [compound 5, 3-(5-(N-(2-Aminoethyl)sulfamoyl)thiophen-2-yl)-5-(4-(4-(trifluoromethyl)phenyl)-1H-1,2,3-triazol-1-yl)benzoic acid] as the molecule, how does the “fold less potent than 7 in P2Y14R binding” value (hP2Y14R) read?
Answer: 3 fold
